Source: patent US20100093973A1, “POLY(AMINO ACID) COMPOUND HAVING INHIBITORY ACTIVITY ON ABSORPTION OF PHOSPHORUS AND PHOSPHORUS ABSORPTION INHIBITOR” (priority 2007, published 2010)
Structures can show the parent of a compound that is named as a salt.

Legend:
[1] = in vitro; assay type: cell-based; conditions: dog
Description: MDCK Cells were inoculated into wells of a 96-well plate filled with D-MEM/F12 culture medium (available from GIBCO Company) supplemented with 10% FBS (available from TISSUE CULTURE BIOLOGICALS Company). After the cultivation of the cells for 3 days in a CO2 incubator, the culture medium was removed, a culture medium, in which each candidate substance (synthesized compound) had been dissolved, was added, followed by the cultivation for one day. To each well, there was added 10 μL of Cell Count Reagent SF (available from NAKARAI TESUKU K.K.), followed by the cultivation thereof for 2 hours and the subsequent determination of the absorbance observed at a wavelength of 460 nm. The IC50 values each were calculated on the basis of these measured values.

[2] = system: absorption of phosphorus; assay: Evaluation of efficacy as phosphorus absorption inhibitors: serum radioactivity AUC (0-120 min) after oral 32P NaH2PO4 in rats, inhibitory rate; assay type: in vivo; conditions: rats of SD line, oral dose 100 mg/5 mL/kg, 32P NaH2PO4 given orally 5 min later, serum radioactivity AUC 0-120 min vs control
Description: Seven-week-old male rats of SD line (available from SANKYO Labo-Service Co., Ltd.), as test animals, were kept and acclimatized using the usual feed (Solid CRF-1 available from ORIENTAL Yeast Co., Ltd.) and they were used in the following tests after they were fasted overnight. Each candidate substance (synthesized compound) dissolved in distilled water for injection (Otsuka Pharmaceutical Co., Ltd.) was orally administered in a dose of 100 mg/5 mL/kg or 50 mg/5 mL/kg and after 5 minutes from the administration, 3 mg/3 mL/kg, 1 MBq/kg of an NaH2PO4 solution containing ^32P (available from PerkinElmer Company) was orally administered. Subsequently, the blood was collected with the elapse of time through the caudal vein of the test animal to thus obtain the serum thereof and the radioactivity of 40 μL of the serum was determined using a liquid scintillation counter. The inhibitory rate (%) for each candidate compound was calculated on the basis of the foregoing measured values according to the following equation: […]

Row | SMILES | IC50 at 1 day [1] | Inhibitory Rate (%) of Phosphorus Absorption [2]
1 | NCCC[C@H](N)C(=O)NCCCN(CCCCN(CCCNC(=O)[C@@H](N)CCCN)C(=O)[C@@H](N)CCCN)C(=O)[C@@H](N)CCCN [Example 4, SPM(Orn)4 Hydrochloride] | > 10000 µg/mL | 58%
2 | NCCCC[C@H](N)C(=O)NCCCC[C@H](NC(=O)[C@@H](N)CCCCN)C(=O)NCCCN(CCCCN(CCCNC(=O)[C@H](CCCCNC(=O)[C@@H](N)CCCCN)NC(=O)[C@@H](N)CCCCN)C(=O)[C@H](CCCCNC(=O)[C@@H](N)CCCCN)NC(=O)[C@@H](N)CCCCN)C(=O)[C@H](CCCCNC(=O)[C@@H](N)CCCCN)NC(=O)[C@@H](N)CCCCN [Example 2, SPM(Lys)12 Hydrochloride] | > 10000 µg/mL | 52%
3 | NCCCC[C@H](NC(=O)[C@@H](N)CCCCN)C(=O)NCCCC[C@H](N)C(=O)NCCCN(CCCCN(CCCNC(=O)[C@@H](N)CCCCNC(=O)[C@H](CCCCN)NC(=O)[C@@H](N)CCCCN)C(=O)[C@@H](N)CCCCNC(=O)[C@H](CCCCN)NC(=O)[C@@H](N)CCCCN)C(=O)[C@@H](N)CCCCNC(=O)[C@H](CCCCN)NC(=O)[C@@H](N)CCCCN [Example 29, SPM(Lys)12 Hydrochloride] | > 10000 µg/mL | 55%
